According to US7666890B2, “Synthesis and herbicidal activity of 1- (2-substituted benzo[d]thiazol-5-yl)-1H-1,2,4-triazol-5(4H)-one derivatives” (Huazhong Normal University, priority 2007, dated 2010):

Experiments:
Test in all cases: Test of herbicidal activities (greenhouse pot method)
Assay type in all cases: in vivo
Details in all cases: single dose 300 g ai./h, treated before/after germination, 15 days later, greenhouse pot
Setaria viridis = tested on: Setaria viridis
Method: (§1) Garden soil was collected from regions where no pesticide is used and mixed uniformly with mountain soil and organic humus soil at a volume ratio of 1:1:1.
(§2) Multiple flowerpots each having a diameter of 9.5 cm and a depth of 8 cm were filled with the soil mixture to 3/4 volume. After water was added to the soil and the soil was completely wet, seeds of three grass weeds and three broadleaf weeds were inserted into the flowerpots (10-15 seeds for each weed). After seeding, the seeds were covered with fine oil mixed with sand and having a thickness of 1-3 cm. After the soil absorbed enough water and became saturated, excess water at the bottom of the flowerpot was drained, and the seeds were placed in a greenhouse for growth.
(§3) The weeds were watered every day so as to keep relative humidity of the soil at approximately 80%, growing temperature of 15-30° C., and air humidity above 50%. As the grass weeds grew to a 2-leaf stage and the broadleaf weeds was in a leaf period, spraying operation […] was performed on the stems and leafs. Planting before germination was performed before spraying. Soil processing was performed before the seeds of the weeds emerged.
(§4) Six target weeds comprising three grass weeds: Echinochloa crusgalli, Digiatria sanguinalis, Setaria viridis, along with three broadleaf weeds: Brassica juncea, Amaranthus retroflexus, Chenopodium album were treated before/after germination using a so-called “greenhouse pot” method with a single dose. A treating dose was 300 g ai./h. The process was repeated three times, and a blank control was used.
(§5) A 3WPSHZ-500 type automatic spraying tower with a spraying area of 0.132 m^2, a spray volume of 10 mL, working pressure of 0.2 MPa, and a liquid volume of 40% of maximum was used. After treatment, the weeds were placed in a greenhouse at a temperature of 15-30° C. Reaction symptoms of the weeds were regularly observed, and 15 days later, five reaction levels were determined according to the following inhibition intervals: 90≦A≦100%; 80≦B<90%, 60≦C<80%; 50≦D<60%, E<50%.

Chenopodium album = tested on: Chenopodium album
Method: as §1, §2, §3, §4, §5

Brassica juncea = tested on: Brassica juncea
Method: as §1, §2, §3, §4, §5

Echinochloa crusgalli = tested on: Echinochloa crusgalli
Method: as §1, §2, §3, §4, §5

Digiatria sanguinalis = tested on: Digiatria sanguinalis
Method: as §1, §2, §3, §4, §5

Amaranthus retroflexus = tested on: Amaranthus retroflexus
Method: as §1, §2, §3, §4, §5

Row | Compound | Herbicidal activity Setaria viridis (inhibition level) (Setaria viridis) | Herbicidal activity Chenopodium album (inhibition level) (Chenopodium album) | Herbicidal activity Brassica juncea (inhibition level) (Brassica juncea) | Herbicidal activity Echinochloa crusgalli (inhibition level) (Echinochloa crusgalli) | Herbicidal activity Digiatria sanguinalis (inhibition level) (Digiatria sanguinalis) | Herbicidal activity Amaranthus retroflexus (inhibition level) (Amaranthus retroflexus)
1 | CCOC(=O)C(C)Sc1nc2cc(-n3nc(C)n(C(F)F)c3=O)c(Cl)cc2s1 (stereo not drawn) [Compound 95] | A (90 ≦ A ≦ 100%) | B (80 ≦ B < 90%) | D (50 ≦ D < 60%) | A (90 ≦ A ≦ 100%) | A (90 ≦ A ≦ 100%) | A (90 ≦ A ≦ 100%)
2 | CCOC(=O)CS(=O)(=O)c1nc2cc(-n3nc(C)n(C(F)F)c3=O)c(F)cc2s1 [Compound 65] | B (80 ≦ B < 90%) | A (90 ≦ A ≦ 100%) | A (90 ≦ A ≦ 100%) | C (60 ≦ C < 80%) | B (80 ≦ B < 90%) | A (90 ≦ A ≦ 100%)
3 | CCCCCCSc1nc2cc(-n3nc(C)n(C(F)F)c3=O)c(Cl)cc2s1 [Compound 85] | A (90 ≦ A ≦ 100%) | B (80 ≦ B < 90%) | B (80 ≦ B < 90%) | B (80 ≦ B < 90%) | A (90 ≦ A ≦ 100%) | B (80 ≦ B < 90%)
4 | CCS(=O)(=O)c1nc2cc(-n3nc(C)n(C(F)F)c3=O)c(F)cc2s1 [Compound 56] | D (50 ≦ D < 60%) | C (60 ≦ C < 80%) | A (90 ≦ A ≦ 100%) | B (80 ≦ B < 90%) | D (50 ≦ D < 60%) | A (90 ≦ A ≦ 100%)
5 | CCCSc1nc2cc(-n3nc(C)n(C)c3=O)c(F)cc2s1 [Compound 33] | B (80 ≦ B < 90%) | B (80 ≦ B < 90%) | A (90 ≦ A ≦ 100%) | B (80 ≦ B < 90%) | A (90 ≦ A ≦ 100%) | A (90 ≦ A ≦ 100%)
6 | CCCCSc1nc2cc(-n3nc(C(F)(F)F)n(C(F)F)c3=O)c(Cl)cc2s1 [Compound 126] | C (60 ≦ C < 80%) | B (80 ≦ B < 90%) | A (90 ≦ A ≦ 100%) | B (80 ≦ B < 90%) | A (90 ≦ A ≦ 100%) | B (80 ≦ B < 90%)
7 | Cc1nn(-c2cc3nc(S(=O)(=O)Cc4ccccc4F)sc3cc2F)c(=O)n1C(F)F [Compound 52] | B (80 ≦ B < 90%) | B (80 ≦ B < 90%) | B (80 ≦ B < 90%) | E (E < 50%) | A (90 ≦ A ≦ 100%) | C (60 ≦ C < 80%)
8 | CCCSc1nc2cc(-n3nc(C)n(C(F)F)c3=O)c(F)cc2s1 [Compound 92] | C (60 ≦ C < 80%) | E (E < 50%) | A (90 ≦ A ≦ 100%) | B (80 ≦ B < 90%) | B (80 ≦ B < 90%) | A (90 ≦ A ≦ 100%)
9 | CCCCCC[S+]([O-])c1nc2cc(-n3nc(C)n(C(F)F)c3=O)c(F)cc2s1 (stereo not drawn) [Compound 112] | B (80 ≦ B < 90%) | B (80 ≦ B < 90%) | C (60 ≦ C < 80%) | B (80 ≦ B < 90%) | A (90 ≦ A ≦ 100%) | B (80 ≦ B < 90%)
10 | Cc1nn(-c2cc3nc(S(=O)(=O)Cc4cccc(Cl)c4)sc3cc2F)c(=O)n1C [Compound 36] | D (50 ≦ D < 60%) | D (50 ≦ D < 60%) | C (60 ≦ C < 80%) | C (60 ≦ C < 80%) | C (60 ≦ C < 80%) | D (50 ≦ D < 60%)
11 | Cc1nn(-c2cc3nc(SCc4ccc(F)cc4F)sc3cc2F)c(=O)n1C(F)F [Compound 12] | B (80 ≦ B < 90%) | E (E < 50%) | C (60 ≦ C < 80%) | E (E < 50%) | B (80 ≦ B < 90%) | A (90 ≦ A ≦ 100%)
12 | CSc1nc2cc(-n3nc(C)n(C(F)F)c3=O)c(F)cc2s1 [Compound 90] | A (90 ≦ A ≦ 100%) | A (90 ≦ A ≦ 100%) | A (90 ≦ A ≦ 100%) | B (80 ≦ B < 90%) | A (90 ≦ A ≦ 100%) | A (90 ≦ A ≦ 100%)
13 | Cc1nn(-c2cc3nc(S(=O)(=O)Cc4c(F)cccc4F)sc3cc2Cl)c(=O)n1C(F)F [Compound 38] | B (80 ≦ B < 90%) | C (60 ≦ C < 80%) | D (50 ≦ D < 60%) | C (60 ≦ C < 80%) | D (50 ≦ D < 60%) | C (60 ≦ C < 80%)
14 | CCOC(=O)C[S+]([O-])c1nc2cc(-n3nc(C)n(C(F)F)c3=O)c(Br)cc2s1 (stereo not drawn) [Compound 111] | C (60 ≦ C < 80%) | E (E < 50%) | B (80 ≦ B < 90%) | A (90 ≦ A ≦ 100%) | C (60 ≦ C < 80%) | A (90 ≦ A ≦ 100%)
15 | Cc1nn(-c2cc3nc(S(C)(=O)=O)sc3cc2F)c(=O)n1C(F)F [Compound 62] | A (90 ≦ A ≦ 100%) | D (50 ≦ D < 60%) | D (50 ≦ D < 60%) | A (90 ≦ A ≦ 100%) | B (80 ≦ B < 90%) | C (60 ≦ C < 80%)
16 | Cc1nn(-c2cc3nc(SCc4ccccc4Cl)sc3cc2Cl)c(=O)n1C(F)F [Compound 3] | E (E < 50%) | E (E < 50%) | C (60 ≦ C < 80%) | E (E < 50%) | C (60 ≦ C < 80%) | B (80 ≦ B < 90%)
17 | Cc1nn(-c2cc3nc(S(=O)(=O)Cc4cccc(Cl)c4)sc3cc2Cl)c(=O)n1C(F)F [Compound 40] | C (60 ≦ C < 80%) | D (50 ≦ D < 60%) | B (80 ≦ B < 90%) | E (E < 50%) | C (60 ≦ C < 80%) | B (80 ≦ B < 90%)
18 | Cc1nn(-c2cc3nc(S(=O)(=O)Cc4cccc(F)c4)sc3cc2Cl)c(=O)n1C(F)F [Compound 44] | B (80 ≦ B < 90%) | C (60 ≦ C < 80%) | C (60 ≦ C < 80%) | C (60 ≦ C < 80%) | C (60 ≦ C < 80%) | B (80 ≦ B < 90%)
19 | Cc1nn(-c2cc3nc(S(=O)(=O)Cc4cccc([N+](=O)[O-])c4)sc3cc2F)c(=O)n1C(F)F [Compound 50] | B (80 ≦ B < 90%) | D (50 ≦ D < 60%) | C (60 ≦ C < 80%) | B (80 ≦ B < 90%) | A (90 ≦ A ≦ 100%) | B (80 ≦ B < 90%)
